Several values for one entry are separate records, joined by “and”; a condition that tells them apart may be missing. Equal entries are not always repeated. Where two headings read alike, the source gives them in different places.
Assays:
[1] = Multiple ascending dose plasma pharmacokinetics in healthy volunteers; type: in vivo, human; conditions: for Cmax / Tmax / AUC(0-t) / half-life: human, plasma, oral; for AUC(0-t): read-out: AUC0-24
Method: (§1) In the single-dose phase, participants were randomized 6:2 to paltusotine (1.25, 2.5, 5, 10, 20, 40, and 60 mg) or placebo in 7 cohorts (S1 to S7). Cohorts comparing oral bioavailability of solution versus capsules and the effect of a standardized high-fat, high-calorie breakfast on oral bioavailability of the capsule formulation employed the 10 mg dose level. In the multiple-dose phase, participants were randomized 6:3 to once-daily oral paltusotine capsules or placebo at doses of 5 mg for 7 days (M1, Day Last = Day 7), and 10, 20, and 30 mg daily for 10 days (M2, M3, M4, Day Last = Day 10). The initial starting dose of 1.25 mg in the single-dose phase was selected for this study based on nonclinical pharmacologic activity, pharmacokinetics, and safety studies. Subsequent doses were either specified in the protocol or were selected by the safety review committee responsible for the safety oversight of the study.
Single-dose cohorts: Plasma samples were collected on Day 1 (pre-dose, every 15 min up to 90 min post-dose, then at 2, 3, 4, 6, 8, 10, 12, 18, 24, 48, 72, 96, 120, and 144 h post-dose). Multiple-dose cohorts: For the 5 mg cohort, plasma samples were collected on Day 1 (pre-dose, every 15 min up to 90 min post-dose, then at 2, 3, 4, 6, 8, 10, 12, and 18 h post-dose), Days 2–6 (pre-dose and 2 h post-dose), Day 7 (same time points as Day 1, followed by samples at 18, 24, 48, 72, 96, 120, and 144 h post-dose). For all other multiple-dose cohorts, plasma samples were collected on Day 1 (pre-dose, every 15 min up to 90 min post-dose, then at 2, 3, 4, 6, 8, 10, 12, and 18 h post-dose), Days […] (same time points as Day 1, followed by samples at 18, 24, 48, 72, 96, 120, 144, 192, and 240 h post-dose).
Plasma pharmacokinetic sample analysis for paltusotine was determined using validated procedures by CPR Pharma Services (Thebarton, Australia). Briefly, plasma paltusotine concentrations were determined by high-pressure liquid chromatography (HPLC) coupled with tandem mass spectrometry detection (MS/MS). Deuterated paltusotine was used as an internal standard. Supported liquid extraction was used to extract paltusotine and the internal standard. The analyte was separated by HPLC using an ACE C18-AR column (Advanced Chromatography Technologies, Ltd, Aberdeen, Scotland), and the eluates were monitored by an API 4000™ LC–MS/MS System (Sciex, Framingham, MA) in positive multiple reaction monitoring mode. The extract was then assayed against a calibration curve. The data were acquired and integrated by the data acquisition software Analyst® (Sciex), linked directly to the API 4000™ LC–MS/MS System, and then processed using Watson LIMS™ software (Thermo Scientific, Waltham, MA), where applicable. The calibration range was 0.100 to 100 ng/mL using 100 μL of plasma, with a lower limit of quantification of 0.100 ng/mL. The inter-assay accuracy was 94% to 100%, and the inter-assay precision (% CV) was between 6.1% and 15%.
(§2) For assessing pharmacokinetics of paltusotine, the single-dose pharmacokinetic population included all randomized participants who received any amount of study drug with sufficient plasma concentration data. For the multiple-dose cohorts, only participants who received all doses were included. The relative bioavailability of the capsule formulation was determined by comparing its pharmacokinetic parameters with those of the solution formulation at the 10 mg dose. Food effect was determined at the same dose by comparing pharmacokinetic parameters in the fasting state to those when paltusotine was administered with a high-fat, high-calorie meal. For both formulation and food effect, ANOVA with treatment as a fixed effect and subject as a random effect was performed. Data for peak concentration (Cmax), AUC0-last, and AUC0-inf were natural log-transformed.

[2] = Relative bioavailability of capsule versus solution and food effect (10 mg); type: in vivo, human; conditions: for Tmax: human, plasma, oral
Method: Screening occurred within 28 days prior to the first administered dose (Day 1) in both single-dose and multiple-dose cohorts. Participants were confined to a clinical research unit from Day -2 until the day after the last dose. Dosing of paltusotine or placebo commenced on Day 1 after baseline studies. Participants fasted overnight for ≥ 10 h prior to each dose administration and remained fasting until 4 h post-dose (after collection of the last GH sample after growth hormone-releasing hormone [GHRH] challenge). For the food effect cohort, the study drug was administered 30 min after a high-fat and high-calorie breakfast. Crinetics Pharmaceuticals, Inc (San Diego, CA) provided the active ingredient, paltusotine (3-[4-(4-Aminopiperidin-1-yl)-3-(3,5-difluorophenyl)quinolin-6-yl]-2-hydroxybenzonitrile hydrochloride; CRN00808), for administration as either an oral solution (prepared on site at the Phase 1 unit) or as capsules (placebo, 5 mg, and 20 mg).
as §1, §2

[3] = 5 mg, 5 mg capsules once daily, Day 1, mean ± SD
[4] = 5 mg, 5 mg capsules once daily, Day 7, mean ± SD
[5] = 10 mg, 10 mg capsules once daily, Day 1, mean ± SD
[6] = 10 mg, 10 mg capsules once daily, Day 10, mean ± SD
[7] = 20 mg, 20 mg capsules once daily, Day 1, mean ± SD
[8] = 20 mg, 20 mg capsules once daily, Day 10, mean ± SD
[9] = 30 mg, 30 mg capsules once daily, Day 1, mean ± SD
[10] = 30 mg, 30 mg capsules once daily, Day 10, mean ± SD

Cl.N#Cc1cccc(-c2ccc3ncc(-c4cc(F)cc(F)c4)c(N4CCC(N)CC4)c3c2)c1O [paltusotine, 3-[4-(4-Aminopiperidin-1-yl)-3-(3,5-difluorophenyl)quinolin-6-yl]-2-hydroxybenzonitrile hydrochloride]
Ctrough ([1]; 5 mg capsules once daily, Day 7, mean ± SD): 10.8 ± 5.11 ng/mL
Ctrough ([1]; 10 mg capsules once daily, Day 10, mean ± SD): 22.2 ng/mL and 22.2 ± 7.38 ng/mL
Ctrough ([1]; 20 mg capsules once daily, Day 10, mean ± SD): 37.9 ± 11.4 ng/mL
Ctrough ([1]; 30 mg capsules once daily, Day 10, mean ± SD): 51.1 ± 32.0 ng/mL
Cmax [1, 3]: 16.8 ± 7.22 ng/mL
Tmax [1, 3]: 1.2 ± 0.1 h
AUC(0-t) [1, 3]: 167 ± 73.4 ng·h/mL
half-life ([1]; 5 mg, 5 mg capsules once daily, Day 7, sampling to 144 h, mean ± SD, read-out: t1/2 (converted)): 34 ± 4.7 h
Cmax [1, 4]: 35.5 ± 12 ng/mL
Tmax [1, 4]: 2.1 ± 0.6 h
AUC(0-t) [1, 4]: 421 ± 163 ng·h/mL
Cmax [1, 5]: 78.7 ± 45.3 ng/mL
Tmax [1, 5]: 1.8 ± 0.9 h
AUC(0-t) [1, 5]: 661 ± 340 ng·h/mL
half-life ([1]; 10 mg, 10 mg capsules once daily, Day 10, sampling to 240 h, mean ± SD, read-out: t1/2 (converted)): 42 ± 5 h
Cmax [1, 6]: 75.5 ± 37.4 ng/mL
Tmax [1, 6]: 3 ± 1.8 h
AUC(0-t) [1, 6]: 956 ± 371 ng·h/mL
Cmax [1, 7]: 88.7 ± 43.3 ng/mL
Tmax [1, 7]: 2.4 ± 0.8 h
AUC(0-t) [1, 7]: 811 ± 409 ng·h/mL
half-life ([1]; 20 mg, 20 mg capsules once daily, Day 10, sampling to 240 h, mean ± SD, read-out: t1/2 (converted)): 50 ± 6.6 h
Cmax [1, 8]: 132 ± 79.2 ng/mL
Tmax [1, 8]: 1.6 ± 0.4 h
AUC(0-t) [1, 8]: 1560 ± 733 ng·h/mL
Cmax [1, 9]: 78.2 ± 60.7 ng/mL
Tmax [1, 9]: 1.4 ± 0.9 h
AUC(0-t) [1, 9]: 578 ± 411 ng·h/mL
half-life ([1]; 30 mg, 30 mg capsules once daily, Day 10, sampling to 240 h, mean ± SD, read-out: t1/2 (converted)): 46 ± 7.4 h
Cmax [1, 10]: 154 ± 102 ng/mL
Tmax [1, 10]: 4.5 ± 2.1 h
AUC(0-t) [1, 10]: 2080 ± 1220 ng·h/mL
half-life ([1]; conclusion summary, read-out: approximate t1/2): 24 to 48 h
half-life ([1]; multiple dose 10-30 mg range, sampling to 240 h after last dose, read-out: mean t1/2): 42 to 50 h
AUC0-inf geometric mean ratio, high-fat high-calorie meal relative to fasted ([2]; 10 mg capsules): 17%
Cmax geometric mean ratio, high-fat high-calorie meal relative to fasted ([2]; 10 mg capsules): 14%
AUC0-inf geometric mean ratio, capsule relative to oral solution ([2]; 10 mg, fasted): 69%
Cmax geometric mean ratio, capsule relative to oral solution ([2]; 10 mg, fasted): 83%
decrease in Cmax and AUC0-24 with food ([2]; high-fat, high-calorie meal before 10 mg capsule): more than 7 fold
Tmax ([2]; 10 mg, 10 mg capsules with high-fat, high-calorie meal): 3 h
Tmax ([2]; 10 mg, 10 mg capsules, fasted): 2.1 h
